Structures are written as SMILES. Where two headings read alike, the source gives them in different places. Bounds are passed on as bounds.

For orientation: IC50 means the concentration at which inhibition is half-maximal.

Data set [1] has as its system FLR3-1 HCV subgenomic replicon cells (genotype 1b; Con-1). The data set is described as follows: Luciferase assay of HCV replication in HCV subgenomic replicon cells. Type of data set: cell-based. Conditions: Hepatitis C virus; for IC50: 72 h, FLR3-1 cells, read-out: IC50 of myriocin. On the procedure:
First, myriocin (Sigma, St. Louis, MO, USA) was added at a final concentration of 0.2, 1.0, 3.9, 15.6, or 62.5 nM to a growth medium for FLR3-1 HCV subgenomic replicon cells (genotype 1b; Con-1; Sakamoto, H. et al., Nat Chem Biol, 1, 333-337 (2005)). After 72 hours of incubation, the present inventors carried out luciferase assay using the Bright-Glo luciferase assay kit (Promega, Madison, WI, USA).
FLR3-1 cells were incubated with 1 or 2.5 µM of a sphingolipid intermediate (dihydrosphingosine, sphingosine, or sphingosine-1-phosphate), and then serial dilutions of myriocin were added thereto. After 72 hours, IC50 in each combination was determined by luciferase assay.
For orientation: In antiviral work, replicon cells carry a viral genome segment that copies itself.

The subject of data set [2] is de novo sphingolipid biosynthesis in FLR3-1 cells. Put plainly: De novo sphingolipid biosynthesis monitored by [14C]-serine incorporation and TLC. In kind it is cell-based. Conditions: TLC. On the procedure:
To investigate the correlation between sphingolipid metabolites and HCV replication, the present inventors monitored the de novo sphingolipid biosynthesis in FLR3-1 cells in the presence of myriocin.
First, FLR3-1 cells were incubated with [^14C]-serine (0.5 µCi/ml) in Opti-MEM (Invitrogen) for two hours. After the cells were lysed in 0.1% SDS, total lipid was extracted using chloroform/methanol (1:2 (v/v)). The extract was spotted onto a Silica gel 60 thin layer chromatography (TLC) plate (Merck, Darmstadt, Germany), and chromatographed using methyl acetate/ 1-propanol/ chloroform/methanol/ 0.25% KCl (25:25:25:10:9 (v/v)). Radioactive spots were detected using BAS 2000 (Fujifilm, Kanagawa, Japan).

In data set [3] the test system is HCV genotype 1b (HCR6). Put plainly: Serum HCV RNA (real-time PCR) in chimeric mice with humanized liver infected with HCV genotype 1b, myriocin and/or PEG-IFN. Type of data set: in vivo, chimeric mice having humanized liver. The settings on record: after eight days, myriocin 1 mg/kg (reduced to 0.5 mg/kg on weight loss). On the procedure: The inhibitory activity of myriocin was examined using chimeric mice having humanized liver infected with HCR6 (genotype 1b). The chimeric mice used were purchased from PhoenixBio Co. (Hiroshima, Japan).
Specifically, according to Table 2, myriocin and/or PEG-IFN (Chugai, Tokyo, Japan) were administered intraperitoneally or subcutaneously into mice infected with HCV genotype 1b (HCR6; accession number AY045702) and blood was collected. Table 2: Administration schedule for chimeric mice infected with HCV genotype 1b
In Table 2, the symbols B, I, and M indicate that each step was conducted as needed and the administration of agents was started on day 0. PEG-IFN was injected at a dose of 30 µg/kg. The dose of myriocin injection was varied depending on the mouse weight. The administration was started at 1 mg/kg (M). When the weight was reduced by 10%, the dose was reduced to 0.5 mg/kg (M1/2). The administration was discontinued when the weight was reduced by 20%.
Next, total RNAs were purified using AGPC method from 1 µl of sera or hepatic tissues collected from the chimeric mice. HCV RNA was quantified by real-time PCR using a method known to those skilled in the art (Takeuchi, T. et al., Gastroenterology, 116, 636-642 (1999)).
For orientation: Quantitative PCR measures a nucleic acid by following its amplification.

A short description of data set [4]: Serum human albumin level (Alb-II kit) in HCV 1b infected chimeric mice. Conditions: serum of HCV 1b infected chimeric mice. In kind it is in vivo, chimeric mice having humanized liver. On the procedure:
The present inventors monitored the human albumin (h-Alb) level at the same time. The human albumin level was determined using 2 µl of serum and the Alb-II kit (Eiken Chemical, Tokyo, Japan) according to the manufacturer's instructions.

For data set [5], the system named is FLR3-1 cells. Put plainly: Cell viability (Tetra Color One kit). The settings on record: 72 hours of incubation, 0.2 to 62.5 nM. Type of data set: cell-based. On the procedure: Furthermore, myriocin was added to FLR3-1 cells, and after 72 hours of incubation, the cell viability was determined using Tetra Color One kit (Seikagakukogyo, Tokyo, Japan) according to the manufacturer's instructions.

Data set [6] has as its system HCV genotype, 1a (HCG9). Put plainly: HCV RNA and core protein in serum and liver of chimeric mice infected with HCV genotype 1a. In kind it is in vivo. Conditions: 2 mg/kg of myriocin every day for six days. On the procedure: The serum RNA level in these mice reached about 1x10^8 copies/ml, 10 times higher than that of HCV 1b (HCR6) (Fig. 5A). Therefore, it was assumed that the HCV core protein in the hepatocytes could be readily detected by immunofluorescent staining. The present inventors administered 2 mg/kg of myriocin to 1a-4 chimeric mice every day for six days and then excised the livers. For comparison, livers were also excised from non-treated mice (1a-1), non-infected mice (1a-2), and PEG-IFN-treated mice (1a-3) in the same way. The livers were homogenized in RIPA, and 100 µg of the total protein was used for detection of the core protein using the Ortho HCV core protein ELISA kit (Eiken Chemical).
Next, the liver tissues of the chimeric mice were examined by immunofluorescent staining. Liver sections from the 1a-1 and 1a-4 mice were probed using a biotinylated anti-HCV core protein monoclonal antibody and anti-human hepatocyte monoclonal antibody (Dako, Glostrup, Denmark) as primary antibodies. Then, the sections were probed with streptavidin-Alexa 488 (Invitrogen) and anti-mouse IgG-Alexa-546 (Invitrogen). Furthermore, nuclei were stained with DAPI.
The effect of myriocin treatment on the expression of HCV RNA and core protein in the livers of the chimeric mice was confirmed by the method described above.

Data set [7] concerns NS3 protein. The data set is described as follows: Immunoblotting and immunofluorescent staining of NS3 protein in HCV replicon cells. Type of data set: cell-based. On the technique in general: Immunoblotting shows a protein as a band on a membrane.

With `CCCCCCC(=O)CCCCCC/C=C/C[C@@H](O)[C@H](O)[C@@](N)(CO)C(=O)O` [myriocin, Myriocin], the IC50 in data set [1] (Agent added: Dihydrosphingosine 1.0 µM) was 77.7 nM; in data set [1] (Agent added: Dihydrosphingosine 2.5 µM), > 1000 nM; in data set [1] (Agent added: Sphingosine 1.0 µM), 22.4 nM; in data set [1] (Agent added: Sphingosine 2.5 µM), > 1000 nM; in data set [1] (Agent added: Sphingosine-1-phosphate 1.0 µM), 14.7 nM; in data set [1] (Agent added: Sphingosine-1-phosphate 2.5 µM), > 1000 nM. For the same compound, the IC50 in data set [1] (No agent added, luciferase assay) is ~5.8 nM. Also, the inhibition at 0.0625 µM in data set [1] (in the presence of 62.5 nM myriocin, 72 hours, read-out: maximum inhibitory rate (luciferase activity)) was ~80%. The “production of both ceramide and sphingomyelin” value in data set [2] is on record as “inhibited in a dose dependent manner”. The “production of phosphatidylethanolamine and phosphatidylserine” value in data set [2] is recorded as “not affected”. The “reduction of serum level of HCV RNA” value in data set [3] is given as 10 to 100 times. Also, the “serum level of HCV RNA” value in data set [3] (before treatment 3 x 10^6 to 1 x 10^7 copies/ml) was 6 x 10^5 to 1 x 10^4 copies/ml; in data set [6] (1a-4 mice, non-treated about 1x10^8 copies/ml), 1 x 10^5 copies/ml. Also, the human albumin level result in data set [4] is reported as “without affecting h-Alb”. The cell viability result in data set [5] is on record as “without affecting the cell viability”. The “HCV 1a RNA and core protein in the liver” value in data set [6] (1a-4 mice) is recorded as “also reduced”. The “core protein in human hepatocytes (immunofluorescent staining)” value in data set [6] (liver sections of 1a-4 mice) is on record as “disappeared”. The NS3 protein entry in data set [7] is recorded as “reduced”.

The values above are taken from EP2042188A1, “PHARMACEUTICAL COMPOSITION FOR TREATING OR PREVENTING HCV INFECTION” (priority 2006, dated 2007).
